Experiments:
[1] = target: human CSNK1D tagged with nanoluciferase (Homo sapiens (Human), UniProt P48730); experiment: Whole Cell nBRET CSNK1D Binding Assay; settings: living CHO cells stably expressing human CSNK1D-nanoluciferase; NanoBret tracer 130 nM; 2 hours 37° C.; read-out: CSNK1D BRET IC50
Procedure: This cellular binding assay uses a bioluminescence resonance energy transfer to measure human CSNK1D binding activity in living Chinese Hamster Ovary (CHO) cells that are stably expressing human CSNK1D tagged with nanoluciferase. The cells were grown to confluency in growth media (DMEM:F12, 50 u/mLPen/Strep, […] glutamine, and 0.6 mg/mL G418) in 10 cm^2 dishes. Cells were seeded onto white, opaque 384-well plates (Corning, cat #3704) at a density of 8,000 cells/well in serum-free OptiMEM and left to incubated overnight at 37° C., […]. The next day, test compounds were added in a dose response to the plate followed by a NanoBret tracer (130 nM). The plate is mixed on an orbital shaker for 30 seconds, then placed in a 37° C. incubator for 2 hours. NanoBret Nano-Glo Substrate solution (20 μL) is added to all wells and incubated for 3 minutes at room temperature. Donor (450 nm) and acceptor (630 nm) emissions are then measured within 10 minutes using a ClarioStar plate reader. The data is used to calculate millibret units, defined as (E630/E450)*1000. Bret emissions are then graphed against the log of compound concentrations and these graphs are used to determine the IC50 of each compound.

[2] = target: human recombinant GST cleaved CSNK1D (Homo sapiens (Human), UniProt P48730); experiment: Purified enzyme assay (ADP-Glo Kinase Assay); assay type: biochemical; settings: 2 nM CSNK1D, peptide substrate 150 μM, ATP 20 μM, 45 minutes room temperature
Procedure: In this assay, CSNK1D phosphorylates a substrate peptide PLSRTL-pS-VASLPGL in the presence of ATP. […] This assay monitors CSNK1D kinase activity by measuring the amount of ADP produced in the assay. A substrate mix is prepared by diluting peptide substrate (final concentration 150 μM) with ATP (final concentration 20 μM) in assay buffer (50 mM Tris/HCl pH 7.4+10 mM MgCl2+1 mM DTT+0.1% BSA). The substrate mix is added to each well of a low volume, 384-well, white opaque plate. Test compounds were diluted in HBSS and added in a dose-response to the plate. To start the reaction, 2 nM of constitutively active human recombinant GST cleaved CSNK1D (University of Dundee, clone DU 19064, stored at 0.28 mg/mL in 50 mM Tris/HCl pH 7.5, 150 mM NaCl, 270 mM Sucrose, 0.1 mM EGTA, 0.1% 2-mercaptoethanol, 0.02% Brij-35.1 mM benzamidine, 0.2 mM PMSF) was added to each well and the plate centrifuged for 5 minutes at 1500 rpm. The total volume of each reaction is 5 ul (2 μL of substrate mix, 1 μL of diluted compounds, and 2 μL of human recombinant CSNK1D). The plates are incubated for 45 minutes at room temperature.
ADP was quantified using the ADP-Glo™ Kinase Assay. ADP-Glo Reagent (5 μL) was added to each well. After a 1 hour incubation at room temperature, Kinase Detection Reagent (10 μL) was added to each well and incubated for 30 minutes. Luminescence was measured on the Perkin Elmer Wallac EnVision 2104 Multi-label Reader. The raw data from the Envision is used to calculate percent activity.

Sequence of human recombinant GST cleaved CSNK1D (P48730 whole entry): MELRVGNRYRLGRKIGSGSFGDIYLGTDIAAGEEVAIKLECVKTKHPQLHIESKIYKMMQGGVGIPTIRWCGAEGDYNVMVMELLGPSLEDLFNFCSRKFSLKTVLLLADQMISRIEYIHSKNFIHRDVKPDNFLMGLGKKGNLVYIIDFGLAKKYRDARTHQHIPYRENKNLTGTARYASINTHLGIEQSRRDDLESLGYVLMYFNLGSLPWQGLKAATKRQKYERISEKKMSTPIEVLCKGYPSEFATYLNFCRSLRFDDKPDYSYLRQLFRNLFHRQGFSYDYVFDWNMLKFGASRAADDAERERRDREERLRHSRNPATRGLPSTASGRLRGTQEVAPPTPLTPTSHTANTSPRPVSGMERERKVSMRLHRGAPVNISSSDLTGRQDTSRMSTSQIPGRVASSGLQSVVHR
Sequence of human CSNK1D tagged with nanoluciferase (P48730 whole entry): as above

| IC50 [1] | AC50 [2] | Structure (SMILES) |
| --- | --- | --- |
| 218 nM | 36 nM | Fc1ccc(-c2nn(C3CCOC3)cc2-c2ccnc3[nH]ccc23)nc1 (racemic) [Example 74, (R/S)-4-[3-(5-Fluoro-2-pyridyl)-1-tetrahydrofuran-3-yl-pyrazol-4-yl]-1H-pyrrolo[2,3-b]pyridine] |
| 148 nM | 4 nM | Cn1cc(-c2ccnc3[nH]c(C4(O)CCOC4)cc23)c(-c2ccc(F)cn2)n1 (racemic) [Example 96, (R/S)-3-(4-(3-(5-Fluoropyridin-2-yl)-1-methyl-1H-pyrazol-4-yl)-1H-pyrrolo[2,3-b]pyridin-2-yl)tetrahydrofuran-3-ol] |
| > 10000 nM | 384 nM | Cn1cc(-c2ccnc3[nH]cc(CC4CCOC4)c23)c(-c2ccc(F)cn2)n1 (racemic) [Example 97, (R/S)-4-[3-(5-Fluoro-2-pyridyl)-1-methyl-pyrazol-4-yl]-3-(tetrahydrofuran-3-ylmethyl)-1H-pyrrolo[2,3-b]pyridine] |
| 107 nM | 5 nM | CCC(=O)Nc1cc(-c2cn(C)nc2-c2ccc(F)cn2)ccn1 [Example 1, N-(4-(3-(5-Fluoropyridin-2-yl)-1-methyl-1H-pyrazol-4-yl)pyridin-2-yl)propionamide] |
| 955 nM | 37 nM | Cn1cc(-c2ccnc3c2CCC3)c(-c2ccc(F)cn2)n1 [Example 2, 4-(3-(5-Fluoropyridin-2-yl)-1-methyl-1H-pyrazol-4-yl)-6,7-dihydro-5H-cyclopenta[b]pyridine] |
| 1500 nM | 58 nM | Cn1cc(-c2ccnc3c2CC(=O)N3)c(-c2ccc(F)cn2)n1 [Example 3, 4-(3-(5-Fluoropyridin-2-yl)-1-methyl-1H-pyrazol-4-yl)-1,3-dihydro-2H-pyrrolo[2,3-b]pyridin-2-one] |
| 2360 nM | 118 nM | Cn1cc(-c2ccnc3cc[nH]c23)c(-c2ccc(F)cn2)n1 [Example 4, 7-(3-(5-Fluoropyridin-2-yl)-1-methyl-1H-pyrazol-4-yl)-1H-pyrrolo[3,2-b]pyridine] |
| 460 nM | 15 nM | Cn1cc(-c2ccnc3cn[nH]c23)c(-c2ccc(F)cn2)n1 [Example 5, 7-(3-(5-Fluoropyridin-2-yl)-1-methyl-1H-pyrazol-4-yl)-1H-pyrazolo[4,3-b]pyridine] |
| 1420 nM | 41 nM | Cn1cc(-c2ccnc3[nH]ccc23)c(-c2cnco2)n1 [Example 6, 5-(1-Methyl-4-(1H-pyrrolo[2,3-b]pyridin-4-yl)-1H-pyrazol-3-yl)oxazole] |
| 128 nM | 38 nM | Cn1cc(-c2ccnc3[nH]ccc23)c(-c2ncco2)n1 [Example 7, 2-(1-Methyl-4-(1H-pyrrolo[2,3-b]pyridin-4-yl)-1H-pyrazol-3-yl)oxazole] |
| > 10000 nM | 783 nM | Cc1cc(-c2cn(C)nc2-c2ncco2)c2cn[nH]c2n1 [Example 8, 2-(1-Methyl-4-(6-methyl-1H-pyrazolo[3,4-b]pyridin-4-yl)-1H-pyrazol-3-yl)oxazole] |
| 568 nM | 16 nM | Cn1cnc(-c2nn(C)cc2-c2ccnc3[nH]ccc23)c1 [Example 9, 4-(1-Methyl-3-(1-methyl-1H-imidazol-4-yl)-1H-pyrazol-4-yl)-1H-pyrrolo[2,3-b]pyridine] |
| > 10000 nM | 2280 nM | Cn1cc(-c2ccnc3[nH]ccc23)c(-c2cncn2C)n1 [Example 10, 4-(1-Methyl-3-(1-methyl-1H-imidazol-5-yl)-1H-pyrazol-4-yl)-1H-pyrrolo[2,3-b]pyridine] |
| 4360 nM | 111 nM | Cn1cc(-c2ccnc3[nH]ccc23)c(-c2nccn2C)n1 [Example 11, 4-(1-Methyl-3-(1-methyl-1H-imidazol-2-yl)-1H-pyrazol-4-yl)-1H-pyrrolo[2,3-b]pyridine] |
| 678 nM | 50 nM | Cn1cc(-c2ccnc3[nH]ccc23)c(-c2ccns2)n1 [Example 12, 5-(1-Methyl-4-(1H-pyrrolo[2,3-b]pyridin-4-yl)-1H-pyrazol-3-yl)isothiazole] |
| 626 nM | 28 nM | Cn1cc(-c2ccnc3[nH]ccc23)c(-c2cscn2)n1 [Example 13, 4-(1-Methyl-4-(1H-pyrrolo[2,3-b]pyridin-4-yl)-1H-pyrazol-3-yl)thiazole] |

| IC50 [1] | AC50 [2] | Structure (SMILES) |
| --- | --- | --- |
| 3130 nM | 83 nM | Cn1cc(-c2ccnc3[nH]ccc23)c(-c2cncs2)n1 [Example 14, 5-(1-Methyl-4-(1H-pyrrolo[2,3-b]pyridin-4-yl)-1H-pyrazol-3-yl)thiazole] |
| 181 nM | 7 nM | Cn1cc(-c2ccnc3[nH]ccc23)c(-c2ccsn2)n1 [Example 15, 3-(1-Methyl-4-(1H-pyrrolo[2,3-b]pyridin-4-yl)-1H-pyrazol-3-yl)isothiazole] |
| 319 nM | 15 nM | Cn1cc(-c2ccnc3[nH]ccc23)c(-c2nccs2)n1 [Example 16, 2-(1-Methyl-4-(1H-pyrrolo[2,3-b]pyridin-4-yl)-1H-pyrazol-3-yl)thiazole] |
| 1640 nM | 101 nM | Cn1cc(-c2ccnc3[nH]ccc23)c(-c2ccncc2)n1 [Example 17, 4-[1-Methyl-3-(4-pyridyl)pyrazol-4-yl]-1H-pyrrolo[2,3-b]pyridine] |
| 1770 nM | 26 nM | Cn1cc(-c2ccnc3[nH]ccc23)c(-c2ccncc2F)n1 [Example 18, 4-[3-(3-Fluoro-4-pyridyl)-1-methyl-pyrazol-4-yl]-1H-pyrrolo[2,3-b]pyridine] |
| 797 nM | 92 nM | Cn1cc(-c2ccnc3[nH]ncc23)c(-c2ccncc2F)n1 [Example 19, 4-[3-(3-Fluoro-4-pyridyl)-1-methyl-pyrazol-4-yl]-1H-pyrazolo[3,4-b]pyridine] |
| 356 nM | 14 nM | Cn1cc(-c2ccnc3[nH]ccc23)c(-c2cncc(F)c2)n1 [Example 21, 4-[3-(5-Fluoro-3-pyridyl)-1-methyl-pyrazol-4-yl]-1H-pyrrolo[2,3-b]pyridine] |
| 1170 nM | 44 nM | Cc1ccc(-c2nn(C)cc2-c2ccnc3[nH]ccc23)cn1 [Example 22, 4-[1-Methyl-3-(6-methyl-3-pyridyl)pyrazol-4-yl]-1H-pyrrolo[2,3-b]pyridine] |
| > 10000 nM | 551 nM | Cn1cc(-c2ccnc3[nH]ccc23)c(-c2ccc(OC(F)F)nc2)n1 [Example 23, 4-[3-[6-(Difluoromethoxy)-3-pyridyl]-1-methyl-pyrazol-4-yl]-1H-pyrrolo[2,3-b]pyridine] |
| 251 nM | 34 nM | Cn1cc(-c2ccnc3[nH]ccc23)c(-c2ccc(Cl)cn2)n1 [Example 24, 4-[3-(5-Chloro-2-pyridyl)-1-methyl-pyrazol-4-yl]-1H-pyrrolo[2,3-b]pyridine] |
| 306 nM | 693 nM | Cn1cc(-c2ccnc3[nH]ncc23)c(-c2ccc(Cl)cn2)n1 [Example 25, 4-(3-(5-Chloropyridin-2-yl)-1-methyl-1H-pyrazol-4-yl)-1H-pyrazolo[3,4-b]pyridine] |
| 2090 nM | 58 nM | Cc1cc(-c2cn(C)nc2-c2ccc(Cl)cn2)c2cn[nH]c2n1 [Example 26, 4-(3-(5-Chloropyridin-2-yl)-1-methyl-1H-pyrazol-4-yl)-6-methyl-1H-pyrazolo[3,4-b]pyridine] |
| 178 nM | 4 nM | Cn1cc(-c2ccnc3[nH]ccc23)c(-c2cc(F)ccn2)n1 [Example 27, 4-[3-(4-Fluoro-2-pyridyl)-1-methyl-pyrazol-4-yl]-1H-pyrrolo[2,3-b]pyridine] |
| 165 nM | 8 nM | Cn1cc(-c2ccnc3[nH]ccc23)c(-c2ccc(F)nc2)n1 [Example 28, 4-[3-(6-Fluoro-3-pyridyl)-1-methyl-pyrazol-4-yl]-1H-pyrrolo[2,3-b]pyridine] |
| 184 nM | – | Cn1cc(-c2ccnc3[nH]c(C4COC4)cc23)c(-c2ccc(F)cn2)n1 [Example 92, 4-(3-(5-Fluoropyridin-2-yl)-1-methyl-1H-pyrazol-4-yl)-2-(oxetan-3-yl)-1H-pyrrolo[2,3-b]pyridine] |
